According to ChEMBL document CHEMBL5584236, “Development of novel bisphenol derivatives with a membrane-targeting mechanism as potent gram-positive antibacterial agents” (Eur J Med Chem, 2024):

Tests used:
Staphylococcus aureus [1] = assay: Antibacterial activity against Staphylococcus aureus ATCC29213 assessed as reduction in microbial growth incubated for 22 to 24 hrs by CLSI based broth microdilution method; type: functional; conditions: time 22-24 hrs
Staphylococcus aureus [2] = assay: Antibacterial activity against methicillin-resistant Staphylococcus aureus N315 assessed as reduction in microbial growth incubated for 22 to 24 hrs by CLSI based broth microdilution method; type: functional; conditions: time 22-24 hrs
Staphylococcus aureus [3] = assay: Antibacterial activity against methicillin-resistant Staphylococcus aureus NCTC10442 assessed as reduction in microbial growth incubated for 22 to 24 hrs by CLSI based broth microdilution method; type: functional; conditions: time 22-24 hrs
Escherichia coli = assay: Antibacterial activity against Escherichia coli ATCC25922 assessed as reduction in microbial growth incubated for 22 to 24 hrs by CLSI based broth microdilution method; type: functional; conditions: time 22-24 hrs
[4] = Hemolytic activity against rabbit RBC incubated for 1 hr by multimode plate reader; type: toxicity, cell-based, Oryctolagus cuniculus, Erythrocyte; conditions: rabbit red blood cells (erythrocytes)
Klebsiella pneumoniae = assay: Antibacterial activity against Klebsiella pneumoniae ATCC10031 assessed as reduction in microbial growth incubated for 22 to 24 hrs by CLSI based broth microdilution method; type: functional; conditions: time 22-24 hrs
Acinetobacter baumannii [5] = assay: Antibacterial activity against Acinetobacter baumannii R28889 assessed as reduction in microbial growth incubated for 22 to 24 hrs by CLSI based broth microdilution method; type: functional; conditions: time 22-24 hrs
Acinetobacter baumannii [6] = assay: Antibacterial activity against Acinetobacter baumannii ATCC17978 assessed as reduction in microbial growth incubated for 22 to 24 hrs by CLSI based broth microdilution method; type: functional; conditions: time 22-24 hrs
Staphylococcus aureus [7] = assay: Antibacterial activity against Staphylococcus aureus ATCC25923 assessed as reduction in microbial growth incubated for 22 to 24 hrs by CLSI based broth microdilution method; type: functional; conditions: time 22-24 hrs
[8] = tested on: Staphylococcus epidermidis; assay: Antibacterial activity against Staphylococcus epidermidis CMCC26069 assessed as reduction in microbial growth incubated for 22 to 24 hrs by CLSI based broth microdilution method; type: functional; conditions: time 22-24 hrs
[9] = tested on: Staphylococcus epidermidis; assay: Antibacterial activity against Staphylococcus epidermidis ATCC12228 assessed as reduction in microbial growth incubated for 22 to 24 hrs by CLSI based broth microdilution method; type: functional; conditions: time 22-24 hrs
Staphylococcus aureus [10] = assay: Antibacterial activity against Staphylococcus aureus ATCC29213 infected in C57BL6 mouse corneal infection model assessed as log reduction in CFU at 5 % administered topically on corneas for four times in 3 days by MHA plate counting method; type: functional; conditions: time 3 day
Staphylococcus aureus [11] = assay: Drug resistance, ratio of MIC for Staphylococcus aureus ATCC29213 after 13 passages to MIC for Staphylococcus aureus ATCC29213 after initial exposure; type: functional

CCNCCCCOc1ccc(S(=O)(=O)c2ccc(OCC=C(C)C)cc2)cc1
MIC (Staphylococcus aureus [1]): 25 µg/mL | MIC (Staphylococcus aureus [2]): 25 µg/mL | MIC (Staphylococcus aureus [3]): 25 µg/mL | MIC (Escherichia coli): > 50 µg/mL | HC50 at 1 h [4]: 70.8 µg/mL

O=S(=O)(c1ccc(O)cc1)c1ccc(O)cc1
MIC (Staphylococcus aureus [1]): > 50 µg/mL | MIC (Staphylococcus aureus [2]): > 50 µg/mL | MIC (Staphylococcus aureus [3]): > 50 µg/mL | MIC (Escherichia coli): > 100 µg/mL | HC50 at 1 h [4]: > 200 µg/mL

CCN(CC)CCCCOc1ccc(S(=O)(=O)c2ccc(OCC=C(C)C)cc2)cc1
MIC (Staphylococcus aureus [1]): 50 µg/mL | MIC (Staphylococcus aureus [2]): 25 µg/mL | MIC (Staphylococcus aureus [3]): 25 µg/mL | MIC (Escherichia coli): > 50 µg/mL | HC50 at 1 h [4]: 69.4 µg/mL

C=CCOc1ccc(S(=O)(=O)c2ccc(OCCCCNC(=N)N)cc2)cc1
MIC (Staphylococcus aureus [1]): 6.25 µg/mL | MIC (Staphylococcus aureus [2]): 6.25 µg/mL | MIC (Staphylococcus aureus [3]): 6.25 µg/mL | MIC (Escherichia coli): 50 µg/mL | HC50 at 1 h [4]: > 200 µg/mL

CC(C)Oc1ccc(S(=O)(=O)c2ccc(OCCCCNC(=N)N)cc2)cc1
MIC (Staphylococcus aureus [1]): 12.5 µg/mL | MIC (Staphylococcus aureus [2]): 6.25 µg/mL | MIC (Staphylococcus aureus [3]): 6.25 µg/mL | MIC (Escherichia coli): 50 µg/mL | HC50 at 1 h [4]: > 200 µg/mL

CC(C)=CCC/C(C)=C\COc1ccc(S(=O)(=O)c2ccc(OCCCCNC(=N)N)cc2)cc1
MIC (Staphylococcus aureus [1]): 1.56 µg/mL | MIC (Staphylococcus aureus [2]): 0.78 µg/mL | MIC (Staphylococcus aureus [3]): 0.78 µg/mL | MIC (Escherichia coli): > 50 µg/mL | HC50 at 1 h [4]: 144 µg/mL

CC(C)=CCOc1ccc(S(=O)(=O)c2ccc(OCCCCN(C)C)cc2)cc1
MIC (Staphylococcus aureus [1]): 25 µg/mL | MIC (Staphylococcus aureus [2]): 12.5 µg/mL | MIC (Staphylococcus aureus [3]): 12.5 µg/mL | MIC (Escherichia coli): 50 µg/mL | HC50 at 1 h [4]: 67.8 µg/mL

CC[C@H](C)[C@H](NC(=O)CN)C(=O)NCC(=O)N[C@@H](C)C(=O)N[C@H](C(=O)N[C@@H](CC(C)C)C(=O)N[C@@H](CCCCN)C(=O)N[C@H](C(=O)N[C@@H](CC(C)C)C(=O)N[C@H](C(=O)N[C@H](C(=O)NCC(=O)N[C@@H](CC(C)C)C(=O)N1CCC[C@H]1C(=O)N[C@@H](C)C(=O)N[C@@H](CC(C)C)C(=O)N[C@H](C(=O)N[C@@H](CO)C(=O)N[C@@H](Cc1c[nH]c2ccccc12)C(=O)N[C@H](C(=O)N[C@@H](CCCCN)C(=O)N[C@@H](CCCNC(=N)N)C(=O)N[C@@H](CCCCN)C(=O)N[C@@H](CCCNC(=N)N)C(=O)N[C@@H](CCC(N)=O)C(=O)N[C@@H](CCC(N)=O)C(N)=O)[C@@H](C)CC)[C@@H](C)CC)[C@@H](C)O)[C@@H](C)O)C(C)C)C(C)C [MELITTIN]
MIC (Klebsiella pneumoniae): 6.25 µg/mL | MIC (Acinetobacter baumannii [5]): 3.12 µg/mL | MIC (Acinetobacter baumannii [6]): 3.12 µg/mL

CC(C)=CCOc1ccc(S(=O)(=O)c2ccc(OCCCCNC(=N)N)cc2)cc1
MIC (Staphylococcus aureus [1]): 3.12 µg/mL | MIC (Staphylococcus aureus [2]): 1.56 µg/mL | MIC (Staphylococcus aureus [3]): 3.12 µg/mL | MIC (Escherichia coli): 12.5 µg/mL | HC50 at 1 h [4]: > 200 µg/mL | MIC (Staphylococcus aureus [7]): 3.12 µg/mL | MIC [8]: 1.56 µg/mL | MIC [9]: 1.56 µg/mL | MIC (Klebsiella pneumoniae): 6.25 µg/mL | MIC (Acinetobacter baumannii [5]): 6.25 µg/mL | MIC (Acinetobacter baumannii [6]): 6.25 µg/mL

CN[C@H](CC(C)C)C(=O)N[C@H]1C(=O)N[C@@H](CC(N)=O)C(=O)N[C@H]2C(=O)N[C@H]3C(=O)N[C@H](C(=O)N[C@H](C(=O)O)c4cc(O)cc(O)c4-c4cc3ccc4O)[C@H](O)c3ccc(c(Cl)c3)Oc3cc2cc(c3O[C@@H]2O[C@H](CO)[C@@H](O)[C@H](O)[C@H]2O[C@H]2C[C@](C)(N)[C@H](O)[C@H](C)O2)Oc2ccc(cc2Cl)[C@H]1O [VANCOMYCIN]
MIC (Staphylococcus aureus [1]): 0.78 µg/mL | MIC (Staphylococcus aureus [7]): 0.78 µg/mL | log(activity) (Staphylococcus aureus [10]): 4.8

C=CCOc1ccc(S(=O)(=O)c2ccc(OCC(=O)OCC)cc2)cc1
MIC (Staphylococcus aureus [1]): > 50 µg/mL | MIC (Staphylococcus aureus [2]): > 50 µg/mL | MIC (Staphylococcus aureus [3]): > 50 µg/mL | MIC (Escherichia coli): > 50 µg/mL | HC50 at 1 h [4]: > 200 µg/mL

CCn1cc(C(=O)O)c(=O)c2cc(F)c(N3CCNCC3)cc21 [NORFLOXACIN]
Ratio (Staphylococcus aureus [11]): 4

COC(=O)[C@H](CCCNC(=N)N)NC(=O)[C@H](CCCNC(=N)N)NC(=O)[C@H](CCCNC(=N)N)NC(=O)COc1ccc(S(=O)(=O)c2ccc(OC(C)C)cc2)cc1
MIC (Staphylococcus aureus [1]): > 50 µg/mL | MIC (Staphylococcus aureus [2]): > 50 µg/mL | MIC (Staphylococcus aureus [3]): > 50 µg/mL | MIC (Escherichia coli): > 50 µg/mL | HC50 at 1 h [4]: > 200 µg/mL

COC(=O)[C@H](CCCNC(=N)N)NC(=O)[C@H](CCCNC(=N)N)NC(=O)[C@H](CCCNC(=N)N)NC(=O)COc1ccc(S(=O)(=O)c2ccc(OCC=C(C)C)cc2)cc1
MIC (Staphylococcus aureus [1]): 12.5 µg/mL | MIC (Staphylococcus aureus [2]): 6.25 µg/mL | MIC (Staphylococcus aureus [3]): 6.25 µg/mL | MIC (Escherichia coli): > 50 µg/mL | HC50 at 1 h [4]: > 200 µg/mL
